# pEC50, pIC50: −log10 of the molar value.
# Assays:
# NS3-NS4 [1] = target: T1, NS3-NS4 (Hepatitis C virus genotype 1a, UniProt P27958); assay: cell-based; conditions: EC50, NS3-NS4 activity
# NS3-NS4 [2] = target: T1, NS3-NS4; assay: NS3-NS4 activity, IC50 (Example 37, Table 8); type: biochemical
# T1 sequence (P27958 1027-1657): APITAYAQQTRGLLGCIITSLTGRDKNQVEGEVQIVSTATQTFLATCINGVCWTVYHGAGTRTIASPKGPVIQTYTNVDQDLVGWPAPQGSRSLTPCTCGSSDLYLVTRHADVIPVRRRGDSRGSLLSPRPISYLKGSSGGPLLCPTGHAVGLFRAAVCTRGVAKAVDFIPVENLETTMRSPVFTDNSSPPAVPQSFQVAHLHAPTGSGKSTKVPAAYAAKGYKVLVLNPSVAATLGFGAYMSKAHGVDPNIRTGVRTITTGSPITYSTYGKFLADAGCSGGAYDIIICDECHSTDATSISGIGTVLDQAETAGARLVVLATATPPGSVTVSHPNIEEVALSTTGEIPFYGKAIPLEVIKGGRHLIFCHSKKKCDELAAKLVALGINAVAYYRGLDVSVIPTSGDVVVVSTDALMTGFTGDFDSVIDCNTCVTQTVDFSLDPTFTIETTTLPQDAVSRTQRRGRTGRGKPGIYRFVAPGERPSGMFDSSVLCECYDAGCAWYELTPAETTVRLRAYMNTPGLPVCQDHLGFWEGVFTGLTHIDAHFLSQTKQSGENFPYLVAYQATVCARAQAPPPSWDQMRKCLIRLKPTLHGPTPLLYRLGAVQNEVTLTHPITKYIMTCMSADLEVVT
# T1 sequence (P27958 1658-1711): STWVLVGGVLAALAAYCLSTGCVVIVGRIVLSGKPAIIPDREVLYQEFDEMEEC
Compound,pEC50 (NS3-NS4 [1]),pIC50 (NS3-NS4 [2])
"O=C1N[C@]2(C(=O)NS(=O)(=O)C3CC3)C[C@H]2/C=C\CCCCC[C@H](NC(=O)C2(C(F)(F)F)CC2)C(=O)N2C[C@H](OC(=O)N3Cc4cccc(F)c4C3)C[C@@H]12 [Compound 403, (2R,6S,13aS,14aR,16aS,Z)-14a-(cyclopropylsulfonylcarbamoyl)-5,16-dioxo-6-(1-(trifluoromethyl)cyclopropanecarboxamido)-1,2,3,5,6,7,8,9,10,11,13a,14,14a,15,16,16a-hexadecahydrocyclopropa[e]pyrrolo[1,2-a][1,4]diazacyclopentadecin-2-yl 4-fluoroisoindoline-2-carboxylate]",> 7.00,> 7.00
"CC1(OC(=O)N[C@H]2CCCCC/C=C\[C@@H]3C[C@@]3(C(=O)NS(=O)(=O)C3CC3)NC(=O)[C@@H]3C[C@@H](OC(=O)N4Cc5cccc(F)c5C4)CN3C2=O)CC1 [Compound 404, (2R,6S,13aS,14aR,16aS,Z)-14a-(cyclopropylsulfonylcarbamoyl)-6-((1-methylcyclopropoxy)carbonylamino)-5,16-dioxo-1,2,3,5,6,7,8,9,10,11,13a,14,14a,15,16,16a-hexadecahydrocyclopropa[e]pyrrolo[1,2-a][1,4]diazacyclopentadecin-2-yl 4-fluoroisoindoline-2-carboxylate]",> 7.00,> 7.00
"CCC(C)(C)OC(=O)N[C@H]1CCCCC/C=C\[C@@H]2C[C@@]2(C(=O)NS(=O)(=O)C2CC2)NC(=O)[C@@H]2C[C@@H](OC(=O)N3Cc4cccc(F)c4C3)CN2C1=O [Compound 405, (2R,6S,13aS,14aR,16aS,Z)-14a-(cyclopropylsulfonylcarbamoyl)-5,16-dioxo-6-(tert-pentyloxycarbonylamino)-1,2,3,5,6,7,8,9,10,11,13a,14,14a,15,16,16a-hexadecahydrocyclopropa[e]pyrrolo[1,2-a][1,4]diazacyclopentadecin-2-yl 4-fluoroisoindoline-2-carboxylate]",> 7.00,> 7.00
"CC(C)(C)COC(=O)N[C@H]1CCCCC/C=C\[C@@H]2C[C@@]2(C(=O)NS(=O)(=O)C2CC2)NC(=O)[C@@H]2C[C@@H](OC(=O)N3Cc4cccc(F)c4C3)CN2C1=O [Compound 406, (2R,6S,13aS,14aR,16aS,Z)-14a-(cyclopropylsulfonylcarbamoyl)-6-(neopentyloxycarbonylamino)-5,16-dioxo-1,2,3,5,6,7,8,9,10,11,13a,14,14a,15,16,16a-hexadecahydrocyclopropa[e]pyrrolo[1,2-a][1,4]diazacyclopentadecin-2-yl 4-fluoroisoindoline-2-carboxylate]",> 7.00,> 7.00
"CN(C(=O)N[C@H]1CCCCC/C=C\[C@@H]2C[C@@]2(C(=O)NS(=O)(=O)C2CC2)NC(=O)[C@@H]2C[C@@H](OC(=O)N3Cc4cccc(F)c4C3)CN2C1=O)C(C)(C)C [Compound 407, (2R,6S,13aS,14aR,16aS,Z)-6-(3-tert-butyl-3-methylureido)-14a-(cyclopropylsulfonylcarbamoyl)-5,16-dioxo-1,2,3,5,6,7,8,9,10,11,13a,14,14a,15,16,16a-hexadecahydrocyclopropa[e]pyrrolo[1,2-a][1,4]diazacyclopentadecin-2-yl 4-fluoroisoindoline-2-carboxylate]",> 7.00,> 7.00
O=C1N[C@]2(C(=O)NS(=O)(=O)C3CC3)C[C@H]2/C=C\CCC(F)(F)CC[C@H](NC(=O)C2(C(F)(F)F)CC2)C(=O)N2C[C@H](OC(=O)N3Cc4cccc(F)c4C3)C[C@@H]12 [Compound 408],> 7.00,> 7.00
O=C1N[C@]2(C(=O)NS(=O)(=O)C3CC3)C[C@H]2/C=C\CCC(F)(F)CC[C@H](NC(=O)C2(C(F)(F)F)CC2)C(=O)N2C[C@H](OC(=O)N3Cc4ccccc4C3)C[C@@H]12 [Compound 409],> 7.00,> 7.00
O=C(N[C@H]1CCCCC/C=C\[C@@H]2C[C@@]2(C(=O)NS(=O)(=O)C2CC2)NC(=O)[C@@H]2C[C@@H](OC(=O)N3Cc4ccc(F)cc4C3)CN2C1=O)OC1CCOCC1 [Compound 410],6.00 to 7.00,> 7.00
O=C(N[C@H]1CCCCC/C=C\[C@@H]2C[C@@]2(C(=O)NS(=O)(=O)C2CC2)NC(=O)[C@@H]2C[C@@H](OC(=O)N3Cc4cccc(Cl)c4C3)CN2C1=O)OC1CCOCC1 [Compound 411],> 7.00,> 7.00
O=C(N[C@H]1CCCCC/C=C\[C@@H]2C[C@@]2(C(=O)NS(=O)(=O)C2CC2)NC(=O)[C@@H]2C[C@@H](OC(=O)N3Cc4cccc(F)c4C3)CN2C1=O)OC1CCOC1 (stereo partly shown) [Compound 412],> 7.00,> 7.00
O=C(N[C@H]1CCCCC/C=C\[C@@H]2C[C@@]2(C(=O)NS(=O)(=O)C2CC2)NC(=O)[C@@H]2C[C@@H](OC(=O)N3Cc4cccc(F)c4C3)CN2C1=O)c1ccc(Cl)cc1 [Compound 413],> 7.00,> 7.00
O=C1N[C@]2(C(=O)NS(=O)(=O)C3CC3)C[C@H]2/C=C\CCCCC[C@H](NC(=O)N2CCOCC2)C(=O)N2C[C@H](OC(=O)N3Cc4cccc(F)c4C3)C[C@@H]12 [Compound 414],6.00 to 7.00,> 7.00
O=C1N[C@]2(C(=O)NS(=O)(=O)C3CC3)C[C@H]2/C=C\CCCCC[C@H](NC(=O)N2CCCCC2)C(=O)N2C[C@H](OC(=O)N3Cc4cccc(F)c4C3)C[C@@H]12 [Compound 415],> 7.00,> 7.00
O=C1N[C@]2(C(=O)NS(=O)(=O)C3CC3)C[C@H]2/C=C\CCCCC[C@H](NC(=O)N2CCC(F)(F)C2)C(=O)N2C[C@H](OC(=O)N3Cc4cccc(F)c4C3)C[C@@H]12 [Compound 416],6.00 to 7.00,> 7.00
O=C1N[C@]2(C(=O)NS(=O)(=O)C3CC3)C[C@H]2/C=C\CCCCC[C@H](NC(=O)N2CCC2)C(=O)N2C[C@H](OC(=O)N3Cc4cccc(F)c4C3)C[C@@H]12 [Compound 417],> 7.00,> 7.00
O=C1N[C@]2(C(=O)NS(=O)(=O)C3CC3)C[C@H]2/C=C\CCCCC[C@H](NC(=O)N2CC(F)(F)C2)C(=O)N2C[C@H](OC(=O)N3Cc4cccc(F)c4C3)C[C@@H]12 [Compound 418],> 7.00,> 7.00

Compound,pEC50 (NS3-NS4 [1]),pIC50 (NS3-NS4 [2])
O=C(C[C@H]1CCCCC/C=C\[C@@H]2C[C@@]2(C(=O)NS(=O)(=O)C2CC2)NC(=O)[C@@H]2C[C@@H](OC(=O)N3Cc4cccc(F)c4C3)CN2C1=O)Oc1ccccc1 [Compound 419],6.00 to 7.00,> 7.00
CN(Cc1ccccc1)C(=O)N[C@H]1CCCCC/C=C\[C@@H]2C[C@@]2(C(=O)NS(=O)(=O)C2CC2)NC(=O)[C@@H]2C[C@@H](OC(=O)N3Cc4cccc(F)c4C3)CN2C1=O [Compound 421],> 7.00,> 7.00
O=C1N[C@]2(C(=O)NS(=O)(=O)C3CC3)C[C@H]2/C=C\CCCCC[C@H](NC(=O)N2Cc3ccccc3C2)C(=O)N2C[C@H](OC(=O)N3Cc4cccc(F)c4C3)C[C@@H]12 [Compound 422],6.00 to 7.00,> 7.00
CCN(C(=O)N[C@H]1CCCCC/C=C\[C@@H]2C[C@@]2(C(=O)NS(=O)(=O)C2CC2)NC(=O)[C@@H]2C[C@@H](OC(=O)N3Cc4cccc(F)c4C3)CN2C1=O)C(C)(C)C [Compound 423],> 7.00,> 7.00
CN(C(=O)N[C@H]1CCCCC/C=C\[C@@H]2C[C@@]2(C(=O)NS(=O)(=O)C2CC2)NC(=O)[C@@H]2C[C@@H](OC(=O)N3Cc4cccc(Cl)c4C3)CN2C1=O)C(C)(C)C [Compound 424],> 7.00,> 7.00
CN(C(=O)N[C@H]1CCCCC/C=C\[C@@H]2C[C@@]2(C(=O)NS(=O)(=O)C2CC2)NC(=O)[C@@H]2C[C@@H](OC(=O)N3Cc4cccc(F)c4C3)CN2C1=O)C1CCCC1 [Compound 425],> 7.00,> 7.00
O=C(N[C@H]1CCCCC/C=C\[C@@H]2C[C@@]2(C(=O)NS(=O)(=O)C2CC2)NC(=O)[C@@H]2C[C@@H](OC(=O)N3Cc4cccc(F)c4C3)CN2C1=O)OC1CCC1 [Compound 427],> 7.00,> 7.00
O=C(N[C@H]1CCCCC/C=C\[C@@H]2C[C@@]2(C(=O)NS(=O)(=O)C2CC2)NC(=O)[C@@H]2C[C@@H](OC(=O)N3Cc4cccc(F)c4C3)CN2C1=O)OC(C1CC1)C1CC1 [Compound 428],6.00 to 7.00,> 7.00
O=C(N[C@H]1CCCCC/C=C\[C@@H]2C[C@@]2(C(=O)NS(=O)(=O)C2CC2)NC(=O)[C@@H]2C[C@@H](OC(=O)N3Cc4cccc(F)c4C3)CN2C1=O)OCC1CCC1 [Compound 430],> 7.00,> 7.00
O=C(N[C@H]1CCCCC/C=C\[C@@H]2C[C@@]2(C(=O)NS(=O)(=O)C2CC2)NC(=O)[C@@H]2C[C@@H](OC(=O)N3Cc4cccc(Cl)c4C3)CN2C1=O)OC1CCC1 [Compound 433],> 7.00,> 7.00
O=C(N[C@H]1CCCCC/C=C\[C@@H]2C[C@@]2(C(=O)NS(=O)(=O)C2CC2)NC(=O)[C@@H]2C[C@@H](OC(=O)N3Cc4cccc(F)c4C3)CN2C1=O)OCC1CC1 [Compound 434],> 7.00,> 7.00
CC1(COC(=O)N[C@H]2CCCCC/C=C\[C@@H]3C[C@@]3(C(=O)NS(=O)(=O)C3CC3)NC(=O)[C@@H]3C[C@@H](OC(=O)N4Cc5cccc(F)c5C4)CN3C2=O)CC1 [Compound 435],> 7.00,> 7.00
CC(C)COC(=O)N[C@H]1CCCCC/C=C\[C@@H]2C[C@@]2(C(=O)NS(=O)(=O)C2CC2)NC(=O)[C@@H]2C[C@@H](OC(=O)N3Cc4cccc(F)c4C3)CN2C1=O [Compound 436],> 7.00,> 7.00
CC(C)CN(C)C(=O)N[C@H]1CCCCC/C=C\[C@@H]2C[C@@]2(C(=O)NS(=O)(=O)C2CC2)NC(=O)[C@@H]2C[C@@H](OC(=O)N3Cc4cccc(F)c4C3)CN2C1=O [Compound 437],> 7.00,> 7.00
CN(C(=O)N[C@H]1CCCCC/C=C\[C@@H]2C[C@@]2(C(=O)NS(=O)(=O)C2(C)CC2)NC(=O)[C@@H]2C[C@@H](OC(=O)N3Cc4cccc(F)c4C3)CN2C1=O)C(C)(C)C [Compound 440],> 7.00,> 7.00
CN(C(=O)N[C@H]1CCCCC/C=C\[C@@H]2C[C@@]2(C(=O)NS(=O)(=O)C2(C)CC2)NC(=O)[C@@H]2C[C@@H](OC(=O)N3Cc4cccc(Cl)c4C3)CN2C1=O)C(C)(C)C [Compound 441],> 7.00,> 7.00

# From US20090155209A1, “NOVEL MACROCYCLIC INHIBITORS OF HEPATITIS C VIRUS REPLICATION” (priority 2007, published 2009)
